Data published in ChEMBL document CHEMBL4308842, “Allosteric Modulators of HSP90 and HSP70: Dynamics Meets Function through Structure-Based Drug Design” (J Med Chem, 2018).

Experiments:
SK-BR-3 = assay: Antiproliferative activity against human SKBR3 cells; assay type: functional, cell-based
MCF7 = assay: Antiproliferative activity against human MCF7 cells; assay type: functional, cell-based
Jurkat [1] = assay: Potency index, ratio of etoposide IC50 to compound IC50 for antiproliferative activity against human Jurkat T cells; assay type: functional
Jurkat [2] = assay: Antiproliferative activity against human Jurkat T cells after 48 hrs; assay type: functional, cell-based
Jurkat [3] = assay: Potency index, ratio of 17-AAG IC50 to compound IC50 for antiproliferative activity against human Jurkat T cells; assay type: functional
Jurkat [4] = assay: Potency index, ratio of novobiocin IC50 to compound IC50 for antiproliferative activity against human Jurkat T cells; assay type: functional
Heat shock protein HSP90 = Heat shock protein HSP90 (Homo sapiens, UniProt P07900+P08238); assay: Binding affinity to HSP90 (unknown origin) by SPR analysis; assay type: protein assay
[5] = target: Chaperone protein dnaK (Escherichia coli) (UniProt C3TRK2); assay: Inhibition of Escherichia coli DNAK ATPase activity after 3 hrs relative to control; conditions: concentration not given here
Sequence of Chaperone protein dnaK (Escherichia coli) (C3TRK2 1-638): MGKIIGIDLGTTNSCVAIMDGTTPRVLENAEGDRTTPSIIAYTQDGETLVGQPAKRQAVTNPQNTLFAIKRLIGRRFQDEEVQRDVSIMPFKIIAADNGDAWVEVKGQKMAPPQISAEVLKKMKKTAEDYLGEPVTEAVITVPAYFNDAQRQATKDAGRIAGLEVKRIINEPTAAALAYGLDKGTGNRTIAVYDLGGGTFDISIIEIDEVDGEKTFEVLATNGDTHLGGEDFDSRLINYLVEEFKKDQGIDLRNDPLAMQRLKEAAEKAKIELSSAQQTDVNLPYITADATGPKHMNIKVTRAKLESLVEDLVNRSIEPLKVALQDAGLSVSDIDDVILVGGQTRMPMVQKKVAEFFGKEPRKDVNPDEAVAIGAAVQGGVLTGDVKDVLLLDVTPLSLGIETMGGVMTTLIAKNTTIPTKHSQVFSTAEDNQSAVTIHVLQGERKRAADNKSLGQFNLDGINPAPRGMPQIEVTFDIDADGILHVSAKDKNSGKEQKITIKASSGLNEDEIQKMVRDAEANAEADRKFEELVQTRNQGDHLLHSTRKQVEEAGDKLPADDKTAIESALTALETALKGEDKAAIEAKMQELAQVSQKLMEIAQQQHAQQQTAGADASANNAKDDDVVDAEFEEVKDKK

Compound: CO[C@@H]1[C@@H](OC(=O)c2ccc(C)[nH]2)[C@@H](O)[C@H](Oc2ccc3c(O)c(NC(=O)c4c[nH]c(C(=O)Nc5c(O)c6ccc(O[C@@H]7OC(C)(C)[C@H](OC)[C@@H](OC(=O)c8ccc(C)[nH]8)[C@H]7O)c(C)c6oc5=O)c4C)c(=O)oc3c2C)OC1(C)C
- IC50 (SK-BR-3): 2000 nM
- IC50 (MCF7): 2000 nM

Compound: O=C(O[C@@H]1Cc2c(O)cc(O)cc2O[C@@H]1c1cc(O)c(O)c(O)c1)c1cc(O)c(O)c(O)c1 [EPIGALOCATECHIN GALLATE]
- IC50 (SK-BR-3): 4000 nM
- IC50 (MCF7): 4000 nM

Compound: COc1cccc(-c2cc(C(=O)Nc3cc4cc(OC)c(OC(C)=O)c(C)c4oc3=O)ccc2OC)c1
- Ratio IC50 (Jurkat [1]): 3
- IC50 (Jurkat [2]): 416 nM
- Ratio IC50 (Jurkat [3]): 10
- Ratio IC50 (Jurkat [4]): 600
- Kd (Heat shock protein HSP90): 1000 to 2000 nM

Compound: O=c1c(O)c(-c2cc(O)c(O)c(O)c2)oc2cc(O)cc(O)c12
- inhibition [5]: 75%
